Usually melting point stands for the temperature of the solid-liquid transition. Consider `CC(=O)OCc1cc(-c2ccccc2)c2c(n1)OCCN(Cc1cc(C(F)(F)F)cc(C(F)(F)F)c1)C2=O` [Example 37, 8-Acetoxymethyl-4-[3,5-bis(trifluoromethyl)benzyl]-2,3,4,5-tetrahydro-5-oxo-6-phenylpyrido(3,2-f][1,4]oxazepine], for which the melting point is 122 to 124 °C. With `NCc1cc(-c2ccccc2)c2c(n1)OCCN(Cc1cc(C(F)(F)F)cc(C(F)(F)F)c1)C2=O` [Example 43, 8-Aminomethyl-4-[3,5-bis(trifluoromethyl)benzyl]-2,3,4,5-tetrahydro-5-oxo-6-phenylpyrido[3,2-f][1,4]oxazepine], the melting point lay in the range of 188 to 191 °C. Compound `C[C@H]1COc2nccc(-c3ccccc3)c2C(=O)N(Cc2ccccc2)C1` [Example 70, (R)-5-Benzyl-2,3,4,5-tetrahydro-3-methyl-6-oxo-7-phenyl-6H-pyrido[2,3-b][1,5]oxazocine] showed a melting point of 139 to 140 °C. `O=C1c2c(-c3ccccc3)ccnc2OCCN1Cc1cc(C(F)(F)F)cc(C(F)(F)F)c1` [Example 11, 4-[3,5-Bis(trifluoromethyl)benzyl]-2,3,4,5-tetrahydro-5-oxo-6-phenylpyrido[3,2-f][1,4]oxazepine] yielded a melting point of 200 to 201 °C. In turn, `O=C(c1cc(-c2ccccc2)c2c(n1)OCCN(Cc1cc(C(F)(F)F)cc(C(F)(F)F)c1)C2=O)N1CCCCC1` [Example 61, 4-[3,5-Bis(trifluoromethyl)benzyl]-2,3,4,5-tetrahydro-5-oxo-6-phenyl-8-piperidinocarbonylpyrido[3,2-f][1,4]oxazepine] showed a melting point of 218 to 220 °C.

Regarding `CNC(=O)c1cc(-c2ccccc2)c2c(n1)OCCN(Cc1cc(C(F)(F)F)cc(C(F)(F)F)c1)C2=O` [Example 58, 4-[3,5-Bis(trifluoromethyl)benzyl]-N-methyl-2,3,4,5-tetrahydro-5-oxo-6-phenylpyrido[3,2-f][1,4]oxazepine-8-carboxamide], the melting point is 145 °C (dec.). Compound `C[C@@H]1COc2nccc(-c3ccccc3)c2C(=O)N(Cc2ccccc2)C1` [Example 69, (S)-5-Benzyl-2,3,4,5-tetrahydro-3-methyl-6-oxo-7-phenyl-6H-pyrido[2,3-b][1,5]oxazocine] yielded a melting point of 139 to 141 °C. Take `Cc1cc(-c2ccccc2)c2c(n1)OCCCN(Cc1cc(C(F)(F)F)cc(C(F)(F)F)c1)C2=O` [Example 34, 5-[3,5-Bis(trifluoromethyl)benzyl]-2,3,4,5-tetrahydro-9-methyl-6-oxo-7-phenyl-6H-pyrido[2,3-b][1,5]oxazocine]: the melting point lay within 164 to 165 °C.

In the case of `O=C1c2c(-c3ccccc3)ccnc2NCCN1Cc1cc(C(F)(F)F)cc(C(F)(F)F)c1` [Example 21, 4-[3,5-Bis(trifluoromethyl)benzyl]-2,3,4,5-tetrahydro-5-oxo-6-phenyl-1H-pyrido[2,3-e][1,4]diazepine], the melting point is 242 to 243 °C. As to `Cc1ccc(-c2c3n(c(=O)c4ncccc24)C[C@H](C)CN(Cc2cc(C(F)(F)F)cc(C(F)(F)F)c2)C3=O)cc1` [Example 12, (9R)-7-[3,5-Bis(trifluoromethyl)benzyl]-6,7,8,9,10,12-hexahydro-9-methyl-5-(4-methylphenyl)-6,12-dioxo[1,4]diazepino[2,1-g][1,7]naphthyridine], the melting point was 179 to 180 °C. The value for `C[C@@H]1CCn2c(c(-c3ccccc3)c3cccnc3c2=O)C(=O)N(Cc2cc(C(F)(F)F)cc(C(F)(F)F)c2)C1` [Example 17, (9R)-7-[3,5-Bis(trifluoromethyl)benzyl]-6,7,8,9,10,11-hexahydro-9-methyl-6,13-dioxo-5-phenyl-13H-[1,4]diazocino[2,1-g][1,7]naphthyridine] was 245 to 247 °C; that for `Cc1cnc2c(c1-c1ccccc1)C(=O)N(Cc1cc(C(F)(F)F)cc(C(F)(F)F)c1)CCCN(C)C2=O` [Example 54, 6-[3,5-Bis(trifluoromethyl)benzyl]-6,7,8,9,10,11-hexahydro-3,10-dimethyl-5,11-dioxo-4-phenyl-5H-pyrido[2,3-g][1,5]diazonine] was 247 to 249 °C; that for `Cc1ccc(-c2c3n(c(=O)c4ncccc24)CCN(Cc2cc(C(F)(F)F)cc(C(F)(F)F)c2)C3=O)cc1` [Example 1, 7-[3,5-Bis(trifluoromethyl)benzyl]-6,7,8,9-tetrahydro-5-(4-methylphenyl)-6,11-dioxo-11H-pyrazino[2,1-g][1,7]naphthyridine] was 270 to 271 °C. For the compound `COCc1cc(-c2ccccc2)c2c(n1)OCCN(Cc1cc(C(F)(F)F)cc(C(F)(F)F)c1)C2=O` [Example 40, 4-[3,5-Bis(trifluoromethyl)benzyl]-2,3,4,5-tetrahydro-8-methoxymethyl-5-oxo-6-phenylpyrido[3,2-f][1,4]oxazepine], the melting point was 139 to 140 °C.

For `O=C1c2c(-c3ccccc3)cc(CCl)nc2OCCN1Cc1cc(C(F)(F)F)cc(C(F)(F)F)c1` [Example 39, 4-[3,5-Bis(trifluoromethyl)benzyl]-8-chloromethyl-2,3,4,5-tetrahydro-5-oxo-6-phenylpyrido[3,2-f][1,4]oxazepine], the melting point lay within 183 to 184 °C. The compound `C[C@H]1CN(Cc2cc(C(F)(F)F)cc(C(F)(F)F)c2)C(=O)c2c(-c3ccccc3)c3cccnc3c(=O)n2C1` [Example 13, (9S)-7-[3,5-Bis(trifluoromethyl)benzyl]-6,7,8,9,10,12-hexahydro-9-methyl-6,12-dioxo-5-phenyl[1,4]diazepino[2,1-g][1,7]naphthyridine] showed a melting point of 150 to 152 °C.

In turn, `Cc1ccc(-c2ccnc3c2C(=O)N(Cc2ccccc2)C[C@H](C)CO3)cc1` [Example 81, (S)-5-Benzyl-2,3,4,5-tetrahydro-3-methyl-7-(4-methylphenyl)-6-oxo-6H-pyrido[2,3-b][1,5]oxazocine] yielded a melting point of 148 to 149 °C.

Compound `Cc1cnc2c(c1-c1ccccc1)C(=O)N(Cc1cc(C(F)(F)F)cc(C(F)(F)F)c1)CCN(C)C2=O` [Example 50, 6-[3,5-Bis(trifluoromethyl)benzyl]-5,6,7,8,9,10-hexahydro-3,9-dimethyl-5,10-dioxo-4-phenylpyrido(2,3-f][1,4]diazocine] returned a melting point of 203 to 205 °C. As for `CCCCNC(=O)c1cc(-c2ccccc2)c2c(n1)OCCN(Cc1cc(C(F)(F)F)cc(C(F)(F)F)c1)C2=O` [Example 60, 4-[3,5-Bis(trifluoromethyl)benzyl]-N-n-butyl-2,3,4,5-tetrahydro-5-oxo-6-phenylpyrido[3,2-f][1,4]oxazepine-8-carboxamide], the melting point was 194 to 196 °C. In turn, `CC1CCn2c(c(-c3ccccc3)c3cccnc3c2=O)C(=O)N(Cc2cc(C(F)(F)F)cc(C(F)(F)F)c2)C1` (racemic) [Example 15, (+/−)-7-[3,5-Bis(trifluoromethyl)benzyl]-6,7,8,9,10,11-hexahydro-9-methyl-6,13-dioxo-5-phenyl-13H-[1,4]diazocino[2,1-g][1,7]naphthyridine] showed a melting point of 257 to 258 °C. For the compound `O=C1c2c(-c3ccccc3)ccnc2OCCN1Cc1ccccc1` [Example 67, 4-Benzyl-2,3,4,5-tetrahydro-5-oxo-6-phenylpyrido[3,2-f][1,4]oxazepine], the melting point is 209 to 211 °C.

(Values after patent US6489315B1, “Cyclic compounds, their production and use” (Takeda Chemical Industries, Ltd., priority 1995, dated 2002).)
